Results published in ChEMBL document CHEMBL1127941, “Norleucine as a replacement for methionine in phosphatase-resistant linear and cyclic peptides which bind to p85 SH2 domains” (Bioorg Med Chem Lett, 1994).
Numbered stars: 1 amine (or outer) side, 2 acyl side, 3 side chain; on linkers, the order of the positions; unused ones are H or OH. Square brackets hold non-standard residues; d marks the D form. Peptide text beside a SMILES is read from it. X2 = O=C([C@@H](Cc1ccc(C(F)(F)OP(=O)(O)O)cc1)N[*:1])[*:2]; X1 = O=C([C@H](Cc1ccc(C(F)(F)OP(=O)(O)O)cc1)N[*:1])[*:2]; Pmp = N[C@@H](Cc1ccc(CP(=O)(O)O)cc1)C(=O)O; pY = N[C@@H](Cc1ccc(OP(=O)(O)O)cc1)C(=O)O; Nle = CCCC[C@H](N)C(=O)O

Test: Binding affinity to Phosphatidylinositol 3-kinase C-terminal p85 SH2 domain

| Compound | ID50 |
| --- | --- |
| CSCC[C@@H]1NC(=O)[C@@H]2CCCN2C(=O)[C@H](C(C)C)NC(=O)[C@H](Cc2ccc(C(F)(F)OP(=O)(O)O)cc2)NC(=O)CNC(=O)[C@H](CC(C)C)NC1=O (cyclo(G[X1]VPML)) | 2.24 µM |
| CSCC[C@@H]1NC(=O)[C@@H]2CCCN2C(=O)[C@H](C(C)C)NC(=O)[C@@H](Cc2ccc(C(F)(F)OP(=O)(O)O)cc2)NC(=O)CNC(=O)[C@H](CC(C)C)NC1=O (cyclo(G[X2]VPML)) | 32.4 µM |
| CSCC[C@@H]1NC(=O)[C@H]2CCCN2C(=O)[C@H](C(C)C)NC(=O)[C@@H](Cc2ccc(OP(=O)(O)O)cc2)NC(=O)CNC(=O)[C@@H](CC(C)C)NC1=O | 1.01 µM |
| CCCC[C@@H]1NC(=O)[C@H]2CCCN2C(=O)[C@H](C(C)C)NC(=O)[C@@H](Cc2ccc(OP(=O)(O)O)cc2)NC(=O)CNC(=O)[C@@H](CC(C)C)NC1=O | 15.6 µM |
| CCCC[C@@H]1NC(=O)[C@@H]2CCCN2C(=O)[C@H](C(C)C)NC(=O)[C@@H](Cc2ccc(C(F)(F)OP(=O)(O)O)cc2)NC(=O)CNC(=O)[C@H](CC(C)C)NC1=O (cyclo(G[X2]VP[Nle]L)) | 59.1 µM |
| CSCC[C@@H]1NC(=O)[C@H]2CCCN2C(=O)[C@H](C(C)C)NC(=O)[C@@H](Cc2ccc(COP(=O)(O)O)cc2)NC(=O)CNC(=O)[C@@H](CC(C)C)NC1=O | 5.2 µM |
| CCCC[C@@H]1NC(=O)[C@@H]2CCCN2C(=O)[C@H](C(C)C)NC(=O)[C@H](Cc2ccc(C(F)(F)OP(=O)(O)O)cc2)NC(=O)CNC(=O)[C@H](CC(C)C)NC1=O (cyclo(G[X1]VP[Nle]L)) | 8.9 µM |

Second part, the compound after the results:

| ID50 | Compound |
| --- | --- |
| 0.98 µM | CSCC[C@H](NC(=O)[C@@H]1CCCN1C(=O)[C@@H](NC(=O)[C@H](Cc1ccc(CP(=O)(O)O)cc1)NC(=O)CN)C(C)C)C(=O)N[C@@H](CC(C)C)C(=O)O (H-G[Pmp]VPML-OH) |
| 0.17 µM | CSCC[C@H](NC(=O)[C@@H]1CCCN1C(=O)[C@@H](NC(=O)[C@H](Cc1ccc(OP(=O)(O)O)cc1)NC(=O)CN)C(C)C)C(=O)N[C@@H](CC(C)C)C(=O)O (H-G[pY]VPML-OH) |
| 29.4 µM | CSCC[C@H](NC(=O)[C@@H]1CCCN1C(=O)[C@@H](NC(=O)C(Cc1ccc(CP(=O)(O)O)cc1)NC(=O)CN)C(C)C)C(=O)N[C@@H](CC(C)C)C(=O)O (single isomer, unassigned) |
| 1.6 µM | CCCC[C@H](NC(=O)[C@@H]1CCCN1C(=O)[C@@H](NC(=O)[C@H](Cc1ccc(CP(=O)(O)O)cc1)NC(=O)CN)C(C)C)C(=O)N[C@@H](CC(C)C)C(=O)O (H-G[Pmp]VP[Nle]L-OH) |
| 109 µM | CCCC[C@H](NC(=O)[C@@H]1CCCN1C(=O)[C@@H](NC(=O)C(Cc1ccc(CP(=O)(O)O)cc1)NC(=O)CN)C(C)C)C(=O)N[C@@H](CC(C)C)C(=O)O (single isomer, unassigned) |
